Tested on: 231-H2N cells
Assay: Clonogenic survival
Assay type: cell-based, human
Conditions: 24 h, amount equivalent to 2 μM 111In-BnDTPA-F3 at highest specific activity, from 100 ± 5%
Procedure: […] After incubation at 37°C for 24 h, 2 × 10^3 cells were seeded per well in a 6-well plate, and 2 mL of fresh growth medium was added. After 7 to 14 days, cell colonies were stained with methylene blue (2% methylene blue in water/methanol 1:1) and counted. Combination indices (CI) of ^111In with BnDTPA-F3 were determined as described by Edelman et al.. A CI < 0.9 indicates superadditivity.

SMILES: [Cl][111In]([Cl])[Cl] [111In chloride]
- clonogenic survival, equivalent amount of 111In chloride: 46 ± 4%

Source: PMC3298710, “^111In-BnDTPA-F3: an Auger electron-emitting radiotherapeutic agent that targets nucleolin” (EJNMMI Research, 2012)
